Values of other authors, collected in publication PMC7094870 (ACS chemical biology, 2020).

Tested on: platinum resistant ovarian cancer and non-small cell lung cancer
Settings: patients; cited from earlier work

## COc1ccc(C[C@H]2NC(=O)/C=C/C[C@@H]([C@H](C)[C@H]3O[C@@H]3c3ccccc3)OC(=O)[C@H](CC(C)C)OC(=O)C(C)(C)CNC2=O)cc1Cl [cryptophycin-52]
  dose limiting toxicity in clinical trials: dose limiting peripheral neuropathy
